One data set has as its target VEGFR I (FLT) (Homo sapiens, UniProt P17948). In words: Inhibition of FLT-1 kinase activity (33P-ATP, poly-(Glu4Tyr) phosphocellulose filter assay). Type of data set: biochemical. Here is the method: (§1) • Stock solutions • Stock solution A: 3 mmol of ATP in water, pH 7.0 (−70° C.) • Stock solution B: g-33P-ATP 1 mCi/100 μl • Stock solution C: poly-(Glu4Tyr) 10 mg/ml in water Solution for dilutions • Substrate solvent: 10 mmol of DTT, 10 mmol of manganese chloride, 100 mmol of magnesium chloride • Enzyme solution: 120 mmol of tris/HCl, pH 7.5, 10 μM of sodium vanadium oxide
Then, it is washed several times in 0.1 M phosphoric acid. The filter paper is dried, coated with Meltilex and measured in a microbeta counter.

For another data set, the target named is VEGFR II (KDR) (Homo sapiens, UniProt P35968). In words: Inhibition of KDR kinase activity (33P-ATP, poly-(Glu4Tyr) phosphocellulose filter assay). The data set is classed as biochemical. The settings on record: poly-(Glu4Tyr) substrate, 10 minutes at room temperature. As to the method:
as §1
In a microtiter plate (without protein binding) that tapers to a point, 10 μl of substrate mix (10 μl of volume of ATP stock solution A+25 μCi of g-33P-ATP (about 2.5 μl of stock solution B)+30 μl of poly-(Glu4Tyr) stock solution C+1.21 ml of substrate solvent), 10 μl of inhibitor solution (substances corresponding to the dilutions, 3% DMSO in substrate solvent as a control) and 10 μl of enzyme solution (11.25 μg of enzyme stock solution (KDR or FLT-1 kinase) are added at 4° C. in 1.25 ml of enzyme solution (dilute). It is thoroughly mixed and incubated for 10 minutes at room temperature. Then, 10 μl of stop solution (250 mmol of EDTA, pH 7.0) is added, mixed, and 10 μl of the solution is transferred to a P 81 phosphocellulose filter. Then, it is washed several times in 0.1 M phosphoric acid. The filter paper is dried, coated with Meltilex and measured in a microbeta counter.
The IC50 values are determined from the inhibitor concentration, which is necessary to inhibit the phosphate incorporation to 50% of the uninhibited incorporation after removal of the blank reading (EDTA-stopped reaction).

[1] abbreviates: FLT-1 kinase, poly-(Glu4Tyr) substrate, 10 minutes at room temperature, read-out: kinase inhibition IC50 VEGFR I (FLT).

Like-named read-outs stand apart in the source and are kept apart here.

Sequence of VEGFR I (FLT) (P17948 27-1338, species assumed): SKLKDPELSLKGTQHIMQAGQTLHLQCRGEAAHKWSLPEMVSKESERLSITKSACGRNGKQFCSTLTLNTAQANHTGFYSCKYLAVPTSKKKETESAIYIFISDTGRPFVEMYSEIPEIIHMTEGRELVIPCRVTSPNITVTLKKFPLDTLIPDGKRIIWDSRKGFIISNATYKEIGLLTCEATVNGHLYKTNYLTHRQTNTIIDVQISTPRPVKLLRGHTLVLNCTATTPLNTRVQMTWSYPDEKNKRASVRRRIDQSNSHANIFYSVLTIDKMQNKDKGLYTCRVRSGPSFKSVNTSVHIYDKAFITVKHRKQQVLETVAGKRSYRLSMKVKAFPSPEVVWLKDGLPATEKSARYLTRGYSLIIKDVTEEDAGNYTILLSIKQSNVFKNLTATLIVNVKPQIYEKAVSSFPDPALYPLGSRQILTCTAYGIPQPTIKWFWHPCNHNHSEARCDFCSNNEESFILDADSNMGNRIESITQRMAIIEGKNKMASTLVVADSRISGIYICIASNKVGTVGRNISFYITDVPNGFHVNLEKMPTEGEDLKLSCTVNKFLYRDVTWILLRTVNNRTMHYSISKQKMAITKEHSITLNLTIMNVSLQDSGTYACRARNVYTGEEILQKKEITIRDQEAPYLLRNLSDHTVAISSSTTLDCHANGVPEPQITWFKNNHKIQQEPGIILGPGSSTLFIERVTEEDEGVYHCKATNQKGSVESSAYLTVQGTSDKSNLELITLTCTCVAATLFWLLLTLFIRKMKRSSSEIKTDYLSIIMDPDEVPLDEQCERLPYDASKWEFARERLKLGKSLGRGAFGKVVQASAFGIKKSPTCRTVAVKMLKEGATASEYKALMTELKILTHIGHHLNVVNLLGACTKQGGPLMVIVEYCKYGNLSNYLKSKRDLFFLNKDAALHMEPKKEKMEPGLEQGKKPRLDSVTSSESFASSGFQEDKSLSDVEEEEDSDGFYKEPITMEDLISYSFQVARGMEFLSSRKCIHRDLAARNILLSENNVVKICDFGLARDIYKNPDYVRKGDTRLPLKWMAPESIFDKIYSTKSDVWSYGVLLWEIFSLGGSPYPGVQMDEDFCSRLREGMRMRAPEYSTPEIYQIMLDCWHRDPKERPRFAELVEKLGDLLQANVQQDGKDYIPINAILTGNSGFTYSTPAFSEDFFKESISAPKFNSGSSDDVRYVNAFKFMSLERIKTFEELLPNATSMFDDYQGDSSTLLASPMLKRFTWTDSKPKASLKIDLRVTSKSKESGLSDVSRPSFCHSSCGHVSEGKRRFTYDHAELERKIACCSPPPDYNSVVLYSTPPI
Sequence of VEGFR II (KDR) (P35968 20-1356, species assumed): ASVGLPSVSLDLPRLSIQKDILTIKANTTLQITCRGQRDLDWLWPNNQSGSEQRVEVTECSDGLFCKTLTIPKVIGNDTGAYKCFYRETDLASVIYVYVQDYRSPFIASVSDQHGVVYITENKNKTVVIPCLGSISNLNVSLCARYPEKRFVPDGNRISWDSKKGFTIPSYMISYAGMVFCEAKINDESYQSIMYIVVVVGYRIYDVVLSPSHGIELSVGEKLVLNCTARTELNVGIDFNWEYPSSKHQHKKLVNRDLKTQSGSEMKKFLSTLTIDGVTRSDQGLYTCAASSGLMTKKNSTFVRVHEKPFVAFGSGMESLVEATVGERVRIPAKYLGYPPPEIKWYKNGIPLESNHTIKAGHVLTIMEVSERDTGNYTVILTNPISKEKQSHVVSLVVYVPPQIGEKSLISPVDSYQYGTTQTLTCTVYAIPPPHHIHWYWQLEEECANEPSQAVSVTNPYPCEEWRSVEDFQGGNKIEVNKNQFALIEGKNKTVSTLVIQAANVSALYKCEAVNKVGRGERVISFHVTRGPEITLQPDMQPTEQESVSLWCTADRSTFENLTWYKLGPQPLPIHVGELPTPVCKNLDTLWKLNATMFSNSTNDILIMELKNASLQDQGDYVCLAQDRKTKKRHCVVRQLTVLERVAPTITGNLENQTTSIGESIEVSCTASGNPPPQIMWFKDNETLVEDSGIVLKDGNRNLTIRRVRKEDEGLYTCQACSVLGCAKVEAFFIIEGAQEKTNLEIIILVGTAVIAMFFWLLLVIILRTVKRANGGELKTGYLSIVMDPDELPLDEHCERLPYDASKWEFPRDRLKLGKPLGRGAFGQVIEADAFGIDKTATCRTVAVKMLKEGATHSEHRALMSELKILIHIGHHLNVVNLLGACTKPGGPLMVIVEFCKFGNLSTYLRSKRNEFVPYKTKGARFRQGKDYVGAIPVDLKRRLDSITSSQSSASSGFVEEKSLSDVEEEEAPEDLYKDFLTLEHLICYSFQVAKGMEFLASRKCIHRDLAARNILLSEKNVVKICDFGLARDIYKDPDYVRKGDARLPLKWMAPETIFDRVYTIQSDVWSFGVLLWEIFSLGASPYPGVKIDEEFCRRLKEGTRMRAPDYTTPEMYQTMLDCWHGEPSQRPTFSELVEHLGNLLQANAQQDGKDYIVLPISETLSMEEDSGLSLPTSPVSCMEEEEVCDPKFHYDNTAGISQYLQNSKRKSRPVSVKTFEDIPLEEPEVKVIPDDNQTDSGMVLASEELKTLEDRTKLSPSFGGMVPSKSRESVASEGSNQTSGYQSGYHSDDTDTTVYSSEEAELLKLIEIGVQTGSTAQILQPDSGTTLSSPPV

`CCCc1ccc(NC(=O)c2ccccc2CCc2ccncc2)cc1` [Example 1.1]: the IC50 at VEGFR I (FLT) and against VEGFR II (KDR) was 200 nM in each case.
In the case of `O=C(NCC1CCCCC1)c1ccccc1CCc1ccncc1` [Example 1.31], the melting point is 105 to 107 °C. For the same compound, the IC50 at VEGFR I (FLT) (setting [1]) came to 200 nM. In addition, on VEGFR II (KDR), the IC50 worked out at 400 nM.
For the compound `O=C(Nc1ccc(Cl)cc1)c1cccc(C#Cc2cccnc2)c1` [Example 1.54], the melting point worked out at 179 °C. For the same compound, the IC50 at VEGFR I (FLT) (setting [1]) was determined as 50 nM. The same compound returned a concentration for half-maximal inhibition (IC50) at VEGFR II (KDR) of 500 nM.
On the same counts, the results for `COc1ccc(/C=C\c2ccccc2C(=O)Nc2ccc(Cl)cc2)cc1` [Example 1.57] are 137.9 °C, 200 nM and 200 nM.
Regarding `COc1ccc(/C=C\c2ccccc2C(=O)Nc2cnc3ccccc3c2)cc1` [Example 1.60], the half-inhibitory concentration (IC50) was found to be 2000 nM at VEGFR I (FLT) (setting [1]) and 500 nM at VEGFR II (KDR).
On the same counts, the results for `CCCCCCCNC(=O)c1ccccc1/C=C\c1ccc(OC)cc1` [Example 1.64] are 200 nM and 300 nM.
Take `CCCc1ccc(NC(=O)c2ccccc2CCc2ccc(OC)cc2)cc1` [Example 1.67]: the melting point stood at 113.7 °C. Also, the IC50 on VEGFR II (KDR) was determined as 5000 nM.
For the compound `COc1ccc(CCc2ccccc2C(=O)Nc2cnc3ccccc3c2)cc1` [Example 1.89], the IC50 at VEGFR I (FLT) (setting [1]) turned out to be 2000 nM; on VEGFR II (KDR) it was 300 nM.

One may read the IC50 as the concentration that inhibits the measured activity by half. A word on the melting point: it is the temperature, or range, at which the solid turns liquid.

For the origin of these results see patent US20110009447A1, “Substituted Benzoic Acid Amides and Use thereof for the Inhibition of Angiogenesis” (priority 2001, published 2011).
